Test results published in paper PMC12040169 (PLOS Biology, 2025).

Assay: in vitro
Details: human, hela cells
[1] = % viability, bulk resorufin, single well

| Compound | viability at 28.5 h, 10 µM (% viability) [%] | other results |
| --- | --- | --- |
| COCCn1cnnc1C(C)NC(=O)c1nc2ccccc2[nH]1 (stereo not drawn) [CBK307366] | 101 | – |
| O=C(CN1C(=O)S/C(=C\c2ccc(Cl)cc2)C1=O)Nc1cc([N+](=O)[O-])ccc1O [CBK262396] | 90.4 | – |
| Cc1nc2ccc(NC(=O)Nc3cccc(-c4ccc5c(c4)COC4(CCNCC4)O5)c3)cc2o1 [CBK113206] | – | viability at 28.5 h, 10 µM [1]: 101% |
| O=C(NC1CCCCC1)N[C@H]1CO[C@H]2[C@@H]1OC[C@@H]2Nc1nccc(C2CCCC2)n1 [CBK289531] | 82.7 | – |
| O=C(N/N=C\c1ccccc1O)c1nc([N+](=O)[O-])n[nH]1 [CBK261475] | 99.8 | – |
| CC(=O)NC(CC(=O)N1CCc2sccc2C1c1ccccc1)c1ccc(F)cc1 (stereo not drawn) [CBK285548] | 112 | – |
| COC(=O)c1c(-c2ccc(F)cc2)csc1NC(=O)CSc1ncnc2sc3c(c12)CCC3 [CBK265976] | 103 | – |
| Cc1cc(=O)n(CC(=O)Nc2ccc3c(c2)OCO3)cn1 [CBK287835] | 109 | – |
| CC1CCc2nc(NC(=O)Cn3cccc(C(=O)Nc4ccc(F)cc4)c3=O)sc2C1 (stereo not drawn) [CBK286063] | 95.5 | – |
| O=c1cc2oc3cc(O)c(O)cc3c(-c3ccc(OCc4cccc([N+](=O)[O-])c4)cc3)c-2cc1O [CBK265408] | 75.3 | – |
| CC[C@H]1CN(C(=O)NC(C)C)CC[C@H]1CC(=O)NCc1ccc2c(c1)OCO2 [CBK288775] | 97.9 | – |
| c1ccc(CCN2CCC(n3cnc4cccnc43)CC2)cc1 [CBK283581] | 88.5 | – |
| Cc1ccc2[nH]c(SCC(=O)Nc3ccc(C(=O)O)cc3)nc2c1 [CBK297526] | 85.7 | – |
| S=C(Nc1ccccc1)N(Cc1ccccc1)Cc1ccncc1 [CBK267991] | 96.8 | – |
| O=C(O)C1CCN(C(=O)Cc2c[nH]c3ccccc23)CC1 [CBK202747] | 82.7 | – |
| N=c1n(CCN2CCOCC2)c2ccccc2n1CC(O)c1cccs1 (stereo not drawn) [CBK262895C] | 99.1 | – |
| OCc1cccc2c3c(n(Cc4ccccc4)c12)CCCC3 [CBK004693] | 91.3 | – |
| C=CCSc1nnc(OC(=O)N(C)C)n1-c1ccc(Cl)cc1 [CBK004817] | – | viability at 28.5 h, 10 µM: 90.8% |
| CN(CCC1CCOCC1)c1nc2c(c(=O)[nH]1)Cc1ccccc1OC2 [CBK306622] | 96.2 | – |
| O=C(O)c1ccc(OCCNS(=O)(=O)c2ccc3oc4ccccc4c3c2)cc1 [CBK299797] | 90.8 | – |
| CC(=O)c1ccc(OCCn2c(SCC(=O)O)nc3ccccc32)cc1 [CBK287115] | 88.8 | – |
| N/C(Cc1ccc([N+](=O)[O-])cc1)=N\OC(=O)COc1cccc2ccccc12 [CBK262994] | 92.8 | – |

| Compound | viability at 28.5 h, 10 µM (% viability) [%] | other results |
| --- | --- | --- |
| O=C(Nc1ccccn1)c1cnn(-c2ccc(Cl)cc2)c1C(F)(F)F [CBK107442] | 92.2 | – |
| Cc1cc(C(=O)N2CCCCCC2c2nn(C)cc2Cl)on1 (stereo not drawn) [CBK285121] | 107 | – |
| CC(=O)NCC1CCCN(Cc2c[nH]nc2-c2c(F)cccc2F)C1 (stereo not drawn) [CBK306382] | 99.6 | – |
| COc1ccc(Cl)cc1NC(=O)CCCn1cnc([N+](=O)[O-])n1 [CBK268882] | 83.2 | – |
| O=c1ccn([C@@H]2O[C@H](CO)[C@H](O)C2O)c(=O)[nH]1 (stereo partly drawn) [CBK201159] | 95.1 | – |
| COc1ccc(CNC(=O)NC(=O)C2CCN(CCc3c[nH]c4ccccc34)CC2)c(OC)c1 [CBK034864] | 90 | – |
| OCC1CCCN(Cc2c(C3CCCC3)[nH]c3ncccc23)C1 (stereo not drawn) [CBK285332] | 96.1 | – |
| N#Cc1cccc(-n2cc(-c3ccc(C(F)(F)F)cc3)nn2)c1 [CBK112957] | 88.1 | – |
| Clc1cc(N[C@@H]2CCN(Cc3ccccc3)C2)n2nccc2n1 [CBK037069] | 92.3 | – |
| Nc1nonc1-n1nnc(C(=O)N/N=C/c2nc3ccccc3[nH]2)c1-c1ccccc1 [CBK262815] | 93.8 | – |
| Cc1cc(C(=O)NCCn2ccc(C)n2)c2cccc(Cl)c2n1 [CBK282549] | 79.6 | – |
| O=C(Nc1ccc(O)cc1)c1cnc(-c2ccc(Cl)cc2)c(-c2cccnc2)c1 [CBK037516] | 94.7 | – |
| COc1cccc(OC)c1OCCNC1CCc2cc(Cl)ccc2C1 (stereo not drawn) [CBK013079C] | 88.9 | – |
| Cc1ccc(NC(=O)c2ccncc2)c(Br)c1 [CBK058282] | 94.1 | – |
| COCCN1C(=O)C2(CC(=O)N(CC3CCCCC3)C2=O)c2cc(OC)ccc21 (stereo not drawn) [CBK075166] | 90 | – |
| Cc1nn(CC(=O)NC2CC2)c(=O)c2cc3sccc3n12 [CBK284047] | 94.9 | – |
| CCn1cc(S(=O)(=O)NC2(c3ccc(F)cc3)CC2)cn1 [CBK282801] | 112 | – |
| CC(C)(C)OC(=O)N1CCCN(Cc2nnc(-c3ccco3)o2)CC1 [CBK305271] | 103 | – |
| O=C(COc1ccc(C2CCCCC2)cc1)Nc1cccc(-c2nc3ncccc3o2)c1 [CBK264569] | 90.9 | – |
| CCCCN1C(=O)C(O)(c2c(C)nn(CCC#N)c2N)c2ccccc21 (stereo not drawn) [CBK306211] | – | viability at 28.5 h, 10 µM [1]: 110% |
| Cc1ccc(-c2nn(CCC#N)cc2C(=O)N2CCCCC2)cc1 [CBK306119] | 89.6 | – |
| O=C(Nc1ccccc1)[C@H]1O[C@H](CCN2CCN(c3ccccn3)CC2)CC[C@@H]1O [CBK288726] | 87.9 | – |

| Compound | viability at 28.5 h, 10 µM (% viability) [%] | other results |
| --- | --- | --- |
| O=C(c1cccnc1)N1CCN(Cc2cccc(Oc3ccccc3)c2)CC1 [CBK263326G] | 101 | – |
| CCN1CCN(C(=O)c2ccc(N(C)C)cc2)CC1 [CBK200252] | 96.4 | – |
| Cc1c(C(=O)NCCCN2CCOCC2)oc2c1C(=O)CCC2 [CBK270207] | 93.1 | – |
| Cc1ccn(CCC(=O)NC(Cc2ccsc2)c2nccs2)n1 (stereo not drawn) [CBK285137] | 92.5 | – |
| Cc1[nH]c(=O)c(S(=O)(=O)c2ccccc2)c(C)c1Cl [CBK018736] | 83.1 | – |
| c1ccc(Cn2cc(-c3nccnc3OC(c3ccccc3)c3ccccc3)cn2)cc1 [CBK107093] | 88.2 | – |
| Nc1cc(=O)[nH]c(SCC(=O)N2CCCc3ccccc32)n1 [CBK304576] | 94.1 | – |
| Cc1ccc(O)c(NC(=O)c2nc3ncccn3n2)c1 [CBK267629] | 99.6 | – |
| COCC1(C(=O)N2CCN(c3ccccc3C#N)CC2)CCC1 [CBK304361] | 93 | – |
| Cc1ncc(CN2CCCC(O)(c3ccc(F)cc3)CC2)n1C (stereo not drawn) [CBK284836] | 89.6 | – |
| Cc1nnc(SCC(=O)NCc2c(C)c(Cl)cc(C(C)C)c2O)s1 [CBK269662] | 86.1 | – |
| O=C1CCc2cccc(OCCOc3nccnc3N3CCNCC3)c21 [CBK200001G] | 101 | – |
| COc1cccc(Oc2cnc(-c3cccc(C(F)(F)F)c3)c(N)n2)c1 [CBK145177] | 94.2 | – |
| CC1=NC2c3ccsc3C=CC2S1 (stereo not drawn) [CBK008720] | 112 | – |
| C=CCn1c(CCCNC=O)nc2ccccc21 [CBK269375] | 94.2 | – |
| Cc1ccc(Cn2nc(NC(=O)c3cccn3C)c3ccccc32)cc1 [CBK048214] | 97.4 | – |
| Cc1cc2nc(-c3ccc(C(=O)O)cc3)[nH]c2cc1C [CBK096054] | 91.6 | – |
| CCC(C)(C)c1ccc(S(=O)(=O)N2CCCN(Cc3c[nH]c(=O)[nH]c3=O)CC2)cc1 [CBK062881] | 91.8 | – |
| COc1cccc(N2C(=O)N[C@@H]3CCN(S(=O)(=O)c4ccccc4)[C@@H]3C2=O)c1 [CBK289283] | 111 | – |
| Cc1cc(C)n(CCNC(=O)N2CCC(Oc3cccnc3)CC2)n1 [CBK306719] | 109 | – |
| COCCN(C(=S)Nc1ccc(C)cc1Cl)C(C)c1cccnc1 (stereo not drawn) [CBK294472] | 91.1 | – |
| CCN1CCN(Cc2cc(Cl)ccc2OCCCn2ccnc2)CC1 [CBK306990] | 83.2 | – |

| Compound | viability at 28.5 h, 10 µM (% viability) [%] | other results |
| --- | --- | --- |
| CC(=O)NCCOc1nc(N(C)C)nc(N2CCOCC2)n1 [CBK266651] | 96.7 | – |
| COc1ccc(CNC(=O)N(C)C2CCN(C)C2)cc1OC (stereo not drawn) [CBK156020] | 97.6 | – |
| O=C(NCc1ccc(OC2CCNCC2)cc1)c1ccccn1 [CBK036361T] | 93.1 | – |
| NC(=O)c1ccc(-n2cc(-c3ccc(Cl)cc3)nn2)cc1 [CBK113046] | 93.4 | – |
| Cn1cc(-c2nc(C3CCCCCN3C(=O)c3cc(Cl)c[nH]3)no2)cn1 (stereo not drawn) [CBK306396] | 86.4 | – |
| O=C(C[C@@H]1CCNC[C@@H]1Cc1cc(CN2CCCCC2)on1)N1CCCCC1 [CBK289153] | 86.8 | – |
| Clc1ccc(CN2CCC(Oc3cncc(OCc4cccnc4)n3)C2)cc1Cl (stereo not drawn) [CBK084448] | 84 | – |
| COC(=O)c1c(C)[nH]c(C(=O)CSc2ncnc3scc(-c4ccccc4)c23)c1C [CBK265918] | 95.5 | – |
| O=C(Nc1cccc2[nH]ccc12)c1ccc2c(c1)OCCO2 [CBK159657] | 85.7 | – |
| Cc1ccccc1Nc1nc(N)nc(CN(CCC#N)CC2CCC2)n1 [CBK305308] | 89.3 | – |
| c1ccc2c(c1)OCC(c1nn3c(Cn4cnc5ccccc54)nnc3s1)O2 (stereo not drawn) [CBK268436] | 81.4 | – |
| CC(C)N(C(=O)Cn1cccc2cc(C(F)F)nc1-2)C(C)C [CBK285012] | 85.5 | – |
| COc1cc(CNC(=O)c2cccnc2Sc2ccc(Cl)cc2)ccn1 [CBK297755] | 108 | – |
| COc1cc(-c2cncc(Nc3ccc4c(c3)OC(F)(F)C(F)(F)O4)n2)cc(OC)c1OC [CBK065138] | 94.4 | – |
| O=C(Nc1cc(N2CCNCC2)ncn1)c1ccccc1 [CBK004215T] | 94.3 | – |
| Cc1cc(C(C)(C)C)oc1C(=O)N1CCn2c(nnc2C2CC2)C1 [CBK283771] | 93.9 | – |
| CSc1nnc(-c2ccc(C(C)(C)C)cc2)n1Cc1ccco1 [CBK017071] | 92.1 | – |
| NC(=O)c1cc(C2CCCN(CC(=O)NCc3cccs3)C2)n[nH]1 (stereo not drawn) [CBK305361] | 86.6 | – |
| COc1ccc(-c2cc(C(=O)NC3CCCCC3C)c3ccccc3n2)cc1 (stereo not drawn) [CBK294459] | 107 | – |
| Cc1ccc(C2CCCN2C(=O)Cn2cccc(C(=O)NCc3ccccc3)c2=O)cc1C (stereo not drawn) [CBK286074] | 89.5 | – |
| COc1ccc([C@@]23CC[C@@H](NC(=O)Nc4ccc(F)c(F)c4)C[C@@H]2N(C)CC3)cc1C#N [CBK067952T] | 107 | – |
